# Non-standard residues stand in square brackets, D forms with d. No end group written: not given here. Nle = CCCC[C@H](N)C(=O)O
# Experiments:
# [1] = system: B16-F0 murine melanoma; test: Primary tumor melanoma cancer model; format: in vivo, C57BL/6 mice; conditions: male C57 mice, Elvax pellet intramuscular, 21 μg/kg/day
# [2] = biological target: c-Met (Homo sapiens, UniProt P08581); test: Tyrosine kinase receptor protein array in HUVECs; format: cell-based; set-up: endogenous in cells; host or cells: HUVEC; conditions: HUVECs treated for 5 minutes
# Protocol: Screening of a ligand for its ability to inhibit c-Met receptor phosphorylation was tested by tyrosine kinase receptor protein array. Briefly, human umbilical vein endothelial cells (HUVECs) grown to confluence were treated for 5 minutes with COMPOUND 2 (SEQ ID NO:43). Cells were then lysed and total protein collected.
# Sequence of c-Met (P08581 25-1390): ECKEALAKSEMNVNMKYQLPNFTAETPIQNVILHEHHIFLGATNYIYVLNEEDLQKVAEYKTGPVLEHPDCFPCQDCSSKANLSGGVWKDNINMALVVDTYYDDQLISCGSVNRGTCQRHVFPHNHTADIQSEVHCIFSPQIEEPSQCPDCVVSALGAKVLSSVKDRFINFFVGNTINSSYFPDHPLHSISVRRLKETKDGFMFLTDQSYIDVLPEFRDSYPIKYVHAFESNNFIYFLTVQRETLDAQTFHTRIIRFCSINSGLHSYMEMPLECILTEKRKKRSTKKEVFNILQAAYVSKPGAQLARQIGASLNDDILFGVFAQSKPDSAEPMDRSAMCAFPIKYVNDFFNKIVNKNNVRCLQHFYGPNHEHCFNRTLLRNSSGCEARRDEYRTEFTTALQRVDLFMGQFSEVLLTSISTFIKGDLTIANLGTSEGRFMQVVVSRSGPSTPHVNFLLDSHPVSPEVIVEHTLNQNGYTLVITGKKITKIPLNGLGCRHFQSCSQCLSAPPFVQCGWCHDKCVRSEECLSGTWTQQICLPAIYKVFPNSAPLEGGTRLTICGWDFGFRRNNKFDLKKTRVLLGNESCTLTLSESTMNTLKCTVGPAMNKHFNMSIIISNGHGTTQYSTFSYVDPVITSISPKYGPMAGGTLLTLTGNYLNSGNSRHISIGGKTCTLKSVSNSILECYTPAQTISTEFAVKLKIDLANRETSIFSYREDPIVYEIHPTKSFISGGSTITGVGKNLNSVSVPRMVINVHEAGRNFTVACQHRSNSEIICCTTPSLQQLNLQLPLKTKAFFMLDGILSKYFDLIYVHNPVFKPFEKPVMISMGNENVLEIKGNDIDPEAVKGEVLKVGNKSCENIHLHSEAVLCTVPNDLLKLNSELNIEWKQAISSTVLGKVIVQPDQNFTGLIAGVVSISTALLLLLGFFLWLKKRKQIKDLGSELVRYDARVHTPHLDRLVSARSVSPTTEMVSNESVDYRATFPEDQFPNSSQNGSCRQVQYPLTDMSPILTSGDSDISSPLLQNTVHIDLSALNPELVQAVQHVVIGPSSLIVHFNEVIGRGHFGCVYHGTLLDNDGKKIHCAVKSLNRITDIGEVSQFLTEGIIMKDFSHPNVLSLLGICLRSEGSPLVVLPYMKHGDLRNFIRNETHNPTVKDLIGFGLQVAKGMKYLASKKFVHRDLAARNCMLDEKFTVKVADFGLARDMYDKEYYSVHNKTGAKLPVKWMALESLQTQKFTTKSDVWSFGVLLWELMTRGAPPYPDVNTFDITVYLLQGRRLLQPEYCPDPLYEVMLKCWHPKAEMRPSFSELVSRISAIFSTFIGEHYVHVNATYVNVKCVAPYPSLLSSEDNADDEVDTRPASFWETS
substance,measurement,setting,value
Nle-Tyr-Leu-ψ-His-Pro-Phe ([Nle]YLHPF; also: reduced peptide bond psi(CH2NH2) between Leu and His) [Norleual],Primary B16-F0 murine melanoma growth,[1],inhibited
same,c-Met phosphorylation in receptor protein array,[2],inhibited
